The subject of test [1] is Sandhoff disease patient fibroblasts. As to the kind of experiment: Glycosphingolipid (GSL) levels by HPLC, Sandhoff fibroblasts. It counts as cell-based, human. As to conditions: 1 mM for 6 days.
The test system of test [2] is frontotemporal dementia with parkinsonism patient. Kind of test: Case study, frontotemporal dementia with parkinsonism. The test is classed as in vivo, human. As to conditions: frontotemporal dementia with parkinsonism. The source says: After approximately one month of acetyl-leucine treatment, medication was stopped and the patient was re-examined 13 days later.

Test [3] concerns corticobasal syndrome patient. As to the kind of experiment: Case study, corticobasal syndrome. It counts as in vivo, human. The method, then:
Gait analysis was performed before treatment commenced.

The subject of test [4] is microtubule-associated protein 1A/1B-light chain 3-phosphatidylethanolamine conjugate (LC3-II). As to the kind of experiment: LC3-II levels in NPC1−/− mice. It counts as in vivo, mouse. As to conditions: 0.1 g/kg body weight daily from 3 weeks of age, sacrificed at 8 weeks. As to the method:
The Niemann-Pick Disease Type C (NPC) mouse model shares a number of pathological features with Alzheimer's disease (AD) as described herein. […] Mice were sacrificed at 8 weeks of age. Levels of amyloid precursor protein C-terminal fragments (APP-CTFs) were evaluated relative to total amyloid precursor protein (APP) levels in the cerebellum for wild type, untreated wild type NPC1^−/− mice, and AL-treated wild type NPC1^−/− mice. Levels of microtubule-associated protein 1A/1B-light chain 3-phosphatidylethanolamine conjugate (LC3-II) were also evaluated relative to levels of tubulin loading control for wild type, untreated wild type NPC1^−/− mice, and AL-treated wild type NPC1^−/− mice.

Turning to `CC(=O)NC(CC(C)C)C(=O)O` (racemic) [acetyl-DL-leucine], in test [1], the GSL levels result is recorded as “trend towards decreased GSL levels”. In addition, in test [2] (5 gram per day, approximately one month of treatment), the Gait result is given as “significant improvement of gait”. Further, the “Symptoms after suspension of treatment” value in test [2] (re-examined 13 days after stopping) is “symptoms worsened”; in test [3] (two days after suspension, after 8 weeks of treatment), “increase of dizziness symptoms”. In test [2] (under therapy), the Speech entry was “improvement of speech”. Besides, the Falls entry in test [2] (under therapy, before 2-3 falls per month) is given as “falls stopped”. In test [3] (5 g per day, after 20 days), the Clinical observation result is “improvement of dizziness symptoms and significant reduction in the frequency of falls”. In test [3] (after 20 days of treatment, before 3.9), the “Coefficient of variation (temporal)” value amounted to 3.4. The Track width in test [3] (after 20 days of treatment, before 12.1) was 12.3 cm. In test [3] (after 20 days of treatment, before 13/30), the “Functional Gait Assessment” value was 18/30. Besides, the Double stance in test [3] (after 20 days of treatment, before 29.8) amounted to 26.6%. In test [3] (after 20 days of treatment, before 63), the speed was 92 cm/s. The compound also gave a Step cycle length in test [3] (after 20 days of treatment, before 84) of 104 cm. Also, the cadence in test [3] (after 20 days of treatment, before 90) is 106 steps/minute. In test [3] (after 20 days of treatment, before 131), the Max. speed is 152 cm/s. Further, the “LC3-II levels relative to tubulin loading control” value in test [4] is recorded as “lowering of LC3-II”.

Values taken from patent US11793782B2, “Therapeutic agents for neurodegenerative diseases” (priority 2017, dated 2023).
